The data set has as its target T1, P-glycoprotein (P-gp) (Homo sapiens, UniProt P08183).
T1 construct: gene ABCB1
The experiment in a line: Pgp-Glo luminescent P-gp ATPase assay; inhibition of paclitaxel-stimulated ATPase at […]. Format: biochemical.

T1 sequence (P08183 whole entry): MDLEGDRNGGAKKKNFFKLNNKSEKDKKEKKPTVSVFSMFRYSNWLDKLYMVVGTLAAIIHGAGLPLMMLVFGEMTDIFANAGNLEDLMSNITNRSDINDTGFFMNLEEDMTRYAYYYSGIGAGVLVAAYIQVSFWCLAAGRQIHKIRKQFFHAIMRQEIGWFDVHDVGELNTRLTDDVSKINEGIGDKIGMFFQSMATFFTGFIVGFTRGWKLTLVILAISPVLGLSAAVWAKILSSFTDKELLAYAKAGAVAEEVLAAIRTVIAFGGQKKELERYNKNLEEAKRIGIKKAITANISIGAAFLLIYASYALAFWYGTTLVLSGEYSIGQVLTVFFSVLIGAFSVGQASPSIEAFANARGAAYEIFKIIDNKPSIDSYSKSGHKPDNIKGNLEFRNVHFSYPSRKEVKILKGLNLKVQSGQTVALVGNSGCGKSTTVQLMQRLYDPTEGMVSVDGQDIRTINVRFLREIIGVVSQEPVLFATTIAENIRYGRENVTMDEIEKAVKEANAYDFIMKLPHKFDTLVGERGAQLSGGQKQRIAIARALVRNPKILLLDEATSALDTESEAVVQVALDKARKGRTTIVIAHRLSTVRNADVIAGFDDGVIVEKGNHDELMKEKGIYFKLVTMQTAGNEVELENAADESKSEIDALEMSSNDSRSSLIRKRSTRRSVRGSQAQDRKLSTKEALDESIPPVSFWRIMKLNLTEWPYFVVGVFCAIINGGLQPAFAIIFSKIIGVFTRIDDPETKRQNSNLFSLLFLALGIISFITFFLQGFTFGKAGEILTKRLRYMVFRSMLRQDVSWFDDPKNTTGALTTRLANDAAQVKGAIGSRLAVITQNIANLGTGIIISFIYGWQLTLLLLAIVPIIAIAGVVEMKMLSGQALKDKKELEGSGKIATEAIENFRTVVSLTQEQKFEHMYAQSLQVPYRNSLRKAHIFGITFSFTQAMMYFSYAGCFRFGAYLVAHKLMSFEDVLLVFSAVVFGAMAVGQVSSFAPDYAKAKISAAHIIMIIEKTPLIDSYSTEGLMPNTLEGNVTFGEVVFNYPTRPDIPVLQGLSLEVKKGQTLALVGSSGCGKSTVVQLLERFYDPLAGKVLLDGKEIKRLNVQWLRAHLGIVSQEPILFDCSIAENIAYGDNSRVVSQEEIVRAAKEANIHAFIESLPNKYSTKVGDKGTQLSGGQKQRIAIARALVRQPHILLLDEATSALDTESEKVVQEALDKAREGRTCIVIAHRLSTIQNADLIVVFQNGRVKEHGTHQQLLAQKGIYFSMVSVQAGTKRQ

In the case of `C/C1=C\[C@@H]2[C@H](CC[C@@]3(C)O[C@@H]3[C@H]3[C@@H](O)[C@@H](C)C[C@]3(OC(=O)/C=C/c3ccccc3)C1=O)C2(C)C` [EM-E-11-4], the “Pgp-Glo luminescent P-gp ATPase assay; inhibition of paclitaxel-stimulated ATPas” value is “These results suggest that EM-E-11-4 hinders P-gp ATPase activity”.

Values taken from publication PMC7066893 (Aging (Albany NY), 2020).
